# Laboratory results from patent publication US10640495B2, “Heterocycle derivatives having TrkA inhibitory activity” (Shionogi & Co., Ltd., priority 2015, dated 2020).
# Like-named read-outs stand apart in the source and are kept apart here.
# Molecular target: human TrkA (Homo sapiens (Human), UniProt P04629)
# Test: Human TrkA inhibition assay (Test Example 2)
# Assay type: biochemical
# Protocol: Seven point five μL per well of human TrkA (PV3144, Lifetechnologies, final concentration: 1 nmol/L) suspended in the assay buffer (100 mmol/L 4-(2-hydroxyethyl)-1-piperazineethanesulfonic acid (HEPES), 10 mmol/L magnecium chloride, 0.003 vol % Brij-35, 0.004 vol % Tween20 and 1 mmol/L dithiothreitol (DTT)) was applied in a 384 well plate and the plate was pre-incubated for 15 min at room temperature with 0.4 μL of each compound (final concentration: 200 μmol/L-1 pmol/L) dissolved in DMSO. Then, fluorescent substrate (FL-peptide 27, 760424, PerkinElmer, final concentration: 1.5 μmol/L) and ATP (final concentration 500 μmol/L) dissolved in the assay buffer was added in each well. After the incubation of 120 min at 37° C., fifteen μL of termination buffer (100 mmol/L HEPES, 40 mmol/L ethylenediaminetetraacetic acid (EDTA), 10 mmol/L magnecium chloride, 0.003 vol % Brij-35, 0.004 vol % Tween20, 1 mmol/L DTT and 0.16 vol % Coating Reagent 3) was added in each well to stop the enzyme reaction. Fluorescent intensities (FI) of phosphorylated and non-phosphorylated fluorescent substrates were measured by LabChip EZReader II (Caliper LifeSciences, Inc.), and conversion ratio (CR) was calculated by the following formula-1. The CR in the well applied with DMSO alone was used as a negative control and the CR in the well without applying TrkA was used as a positive control. The inhibitory effect of each compound on TrkA phosphorylation was calculated by the following formula-2. CR (%)=(FI of phosphorylated substrate/(FI of phosphorylated substrate+FI of non-phosphorylated substrate))×100 (Formula-1) Phosphorylation inhibition (%)=(1−(CR with compound treatment−CR of positive control)/(CR of negative control−CR of positive control))×100 (Formula-2)
# IC50 values (nmol/L) were determined by the logistic regression using the inhibition data in 10 points of 3-fold dilution series at a compound concentration range of 20 nmol/L to 1 pmol/L, or 10 points of 3-fold dilution series at the range of 2 μmol/L to 0.1 nmol/L, or 10 points of 3-fold dilution series at the range of 200 μmol/L to 10 nmol/L, or 15 points of 3-fold dilution series at the range of 200 μmol/L to 0.04 nmol/L.
# The evaluation results of the compounds in the present invention are indicated as follows. IC50 values of 0 to 100 nM, 100 to 1000 nM and over 1000 nM were shown as “A”, “B” and “C”, respectively.
# [1] = Table 155, human TrkA inhibition, read-out: IC50
# [2] = Table 157, human TrkA inhibition, read-out: IC50
# [3] = Table 153, human TrkA inhibition, read-out: IC50
# [4] = Table 154, human TrkA inhibition, read-out: IC50
# [5] = human TrkA 1 nmol/L, ATP 500 μmol/L, 120 min at 37° C., read-out: IC50 values (TrkA phosphorylation inhibition)
# [6] = Table 156, human TrkA inhibition, read-out: IC50
# human TrkA, sequence (P04629 440-796): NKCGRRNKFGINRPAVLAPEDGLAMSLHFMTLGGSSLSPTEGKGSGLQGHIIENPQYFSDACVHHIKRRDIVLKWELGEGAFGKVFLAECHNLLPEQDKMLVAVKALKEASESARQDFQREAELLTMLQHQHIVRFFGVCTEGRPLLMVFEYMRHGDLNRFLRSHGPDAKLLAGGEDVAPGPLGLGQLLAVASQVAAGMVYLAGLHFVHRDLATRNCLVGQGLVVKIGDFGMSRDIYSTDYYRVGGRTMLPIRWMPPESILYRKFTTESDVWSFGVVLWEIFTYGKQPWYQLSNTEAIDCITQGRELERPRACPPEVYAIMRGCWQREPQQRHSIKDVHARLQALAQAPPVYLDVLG
structure (smiles),measurement,setting,value
COCCN1C[C@@H](NC(=O)Nc2c(C)c(-c3cnn(C)c3)nn2Cc2ccccc2)[C@H](c2ccc(F)c(F)c2)O1 [Compound I-492],IC50,[1],> 1000 nM
CCN1C[C@@H](NC(=O)Nc2c(C)c(-c3cnc(C(=O)NC)c(F)c3)nn2-c2ccccc2)[C@H](c2ccc(F)c(F)c2)O1 (racemic) [Compound I-613],IC50,[2],< 100 nM
COCCN1C[C@@H](NC(=O)Nc2c(C)c(-c3cnc4c(c3)nnn4C)nn2-c2ccccc2)[C@H](c2cccc(F)c2)O1 (racemic) [Compound I-142],IC50,[3],< 100 nM
CNC(=O)c1cc(NC(=O)N[C@@H]2CN(CCOC)O[C@H]2c2ccnc(F)c2)n(-c2ccccc2)n1 (racemic) [Compound I-388],IC50,[1],> 1000 nM
COCCN1C[C@@H](NC(=O)Nc2c(C)c(-c3ccc4nc(C(N)=O)cn4c3)nn2-c2ccccc2)[C@H](c2ccnc(F)c2)O1 (racemic) [Compound I-282],IC50,[4],< 100 nM
COCCN1C[C@@H](NC(=O)Nc2c(C)c(-c3cnc(OCC4CC4)nc3)nn2-c2ccccc2)[C@H](c2ccnc(F)c2)O1 (racemic) [Compound I-431],IC50,[5],3.1 nM
COCCN1C[C@@H](NC(=O)Nc2c(C)c(-c3cnc(N4C[C@H]5C[C@@H](C4)O5)nc3)nn2-c2ccccc2)[C@H](c2ccnc(F)c2)O1 (racemic) [Compound I-487],IC50,[1],< 100 nM
COCCN1C[C@@H](NC(=O)Nc2c(C)c(-c3cnc(N4CC(OC(=O)c5ccccc5)C4)nc3)nn2-c2ccccc2)[C@H](c2cc(F)nc(F)c2)O1 (racemic) [Compound I-286],IC50,[4],< 100 nM
COCC[C@@H]1C[C@@H](NC(=O)Nc2c(C)c(-c3cnc4c(cnn4C)c3)nn2-c2ccccc2)[C@H](c2ccnc(F)c2)O1 [Compound I-236],IC50,[5],1.4 nM
COCCN1C[C@@H](NC(=O)Nc2c(C)c(-c3cnc4c(c3)ncn4C)nn2-c2ccccc2)[C@H](c2cnc(F)c(F)c2)O1 (racemic) [Compound I-69],IC50,[3],< 100 nM
COCCN1C[C@@H](NC(=O)Nc2c(C)c(-c3cnc4c(cnn4CC(=O)N4CCN(C)CC4)c3)nn2-c2ccccc2)[C@H](c2ccnc(F)c2)O1 (racemic) [Compound I-467],IC50,[1],< 100 nM
COCCN1C[C@@H](NC(=O)Nc2c(C)c(-c3cnc(S(C)(=O)=O)nc3)nn2-c2ccccc2)[C@H](c2ccnc(F)c2)O1 (racemic) [Compound I-270],IC50,[4],< 100 nM
COCCN1C[C@@H](NC(=O)Nc2c(C)c(-c3cnc4c(c3)c(C(F)(F)F)nn4C)nn2-c2ccccc2)[C@H](c2ccnc(F)c2)O1 (racemic) [Compound I-264],IC50,[4],< 100 nM
COCCN1C[C@@H](NC(=O)Nc2c(C)c(-c3cnc4c(c3)N(C)CCO4)nn2-c2ccccc2)[C@H](c2ccnc(F)c2)O1 (racemic) [Compound I-340],IC50,[1],< 100 nM
COCCN1C[C@@H](NC(=O)Nc2c(C)c(-c3cnc4c(c3)NCC(=O)N4)nn2-c2ccccc2)[C@H](c2ccnc(F)c2)O1 (racemic) [Compound I-356],IC50,[5],1.5 nM
COCCN1C[C@@H](NC(=O)Nc2c(C)c(-c3ccc4c(cnn4C)c3)nn2-c2ccccc2)[C@H](c2ccc(F)c(F)c2)O1 (racemic) [Compound I-22],IC50,[5],0.81 nM
COCCN1C[C@@H](NC(=O)Nc2c(C)c(-c3cnc4c(c3)OCCN4C(=O)OC(C)(C)C)nn2-c2ccccc2)[C@H](c2ccnc(F)c2)O1 (racemic) [Compound I-280],IC50,[4],< 100 nM
COCCN1C[C@@H](NC(=O)Nc2c(C)c(-c3ccc4c(c3)N(C)C(=O)CO4)nn2-c2ccccc2)[C@H](c2ccnc(F)c2)O1 (racemic) [Compound I-365],IC50,[1],< 100 nM
COCCN1C[C@@H](NC(=O)Nc2c(C)c(-c3cnc4c(c3)OCC(=O)N4)nn2-c2ccccc2)[C@H](c2cnc(F)c(F)c2)O1 (racemic) [Compound I-337],IC50,[1],< 100 nM
COCCN1C[C@@H](NC(=O)Nc2c(C)c(OC3CCNCC3)nn2-c2ccccc2)[C@H](c2ccc(F)c(F)c2)O1 [Compound I-602],IC50,[2],< 100 nM
COCCN1C[C@@H](NC(=O)Nc2c(C)c(-c3cnc(C(N)=O)c(OC)c3)nn2-c2ccccc2)[C@H](c2ccnc(F)c2)O1 (racemic) [Compound I-317],IC50,[4],< 100 nM
COCC[C@H]1C[C@H](NC(=O)Nc2c(C)c(-c3cnn(C)c3)nn2-c2ccccc2)[C@@H](c2ccc(F)c(F)c2)O1 [Compound I-24],IC50,"Table 152, human TrkA inhibition, read-out: IC50_nM",> 1000 nM
CNC(=O)c1ncc(-c2nn(-c3ccccc3)c(NC(=O)N[C@@H]3CN(CCOC)O[C@H]3c3ccc(F)c(F)c3)c2C)cc1F [Compound I-314],IC50,[4],< 100 nM
CCN1C[C@@H](NC(=O)Nc2c(C)c(OCC3CCN(C(C)=O)CC3)nn2-c2ccccc2)[C@H](c2ccc(F)c(F)c2)O1 (racemic) [Compound I-563],IC50,[6],< 100 nM
COCCN1C[C@@H](NC(=O)Nc2c(C)c(-c3cnc(N4CCN(CC#N)CC4)nc3)nn2-c2ccccc2)[C@H](c2cc(F)nc(F)c2)O1 (racemic) [Compound I-419],IC50,[1],< 100 nM
COCCN1C[C@@H](NC(=O)Nc2c(C)c(-c3cnc(OC)nc3)nn2-c2ccccc2)[C@H](c2ccc(F)cc2)O1 (racemic) [Compound I-247],IC50,[4],< 100 nM
COCCN1C[C@@H](NC(=O)Nc2c(C)c(-c3ccnc(C(=O)OC)c3)nn2-c2ccccc2)[C@H](c2ccc(F)c(F)c2)O1 [Compound I-557],IC50,[6],< 100 nM
COCCN1C[C@@H](NC(=O)Nc2c(C)c(-c3cnc(C(=O)NC4CC4)c(F)c3)nn2-c2ccccc2)[C@H](c2ccnc(F)c2)O1 (racemic) [Compound I-257],IC50,[4],< 100 nM
COCCN1C[C@@H](NC(=O)Nc2c(C)c(-c3cnc(NCC(F)(F)F)nc3)nn2-c2ccccc2)[C@H](c2ccnc(F)c2)O1 (racemic) [Compound I-524],IC50,[6],< 100 nM
CCN1C[C@@H](NC(=O)Nc2c(C)c(-c3cc(C(=O)NC)c(=O)n(C)c3)nn2-c2ccccc2)[C@H](c2ccc(F)c(F)c2)O1 (racemic) [Compound I-148],IC50,[3],< 100 nM
COCCN1C[C@@H](NC(=O)Nc2c(C)c(-c3cnc(C(N)=O)c(Cl)c3)nn2-c2ccccc2)[C@H](c2ccnc(F)c2)O1 (racemic) [Compound I-316],IC50,[4],< 100 nM
COCCN1C[C@@H](NC(=O)Nc2c(C)c(OCC3COC3)nn2-c2ccccc2)[C@H](c2ccnc(F)c2)O1 (racemic) [Compound I-503],IC50,[1],< 100 nM
COCC[C@@H]1C[C@@H](NC(=O)Nc2c(C)c(-c3cnc(N(C)C(=O)OC(C)(C)C)nc3)nn2-c2ccccc2)[C@H](c2ccnc(F)c2)O1 [Compound I-289],IC50,[4],< 100 nM
COCCN1C[C@@H](NC(=O)Nc2c(C)c(-c3cnc4c(cnn4CC(=O)OC)c3)nn2-c2ccccc2)[C@H](c2ccnc(F)c2)O1 (racemic) [Compound I-446],IC50,[1],< 100 nM
COCCN1C[C@@H](NC(=O)Nc2c(C)c(-c3cnn(C)c3)nn2-c2ccc(F)cc2)[C@H](c2ccc(F)c(F)c2)O1 (racemic) [Compound I-87],IC50,[3],< 100 nM
CNC(=O)c1cc(-c2nn(-c3ccccc3)c(NC(=O)N[C@@H]3CN(CCOC)O[C@H]3c3ccc(F)c(F)c3)c2C)cn(C)c1=O (racemic) [Compound I-147],IC50,[3],< 100 nM
COCCN1C[C@@H](NC(=O)Nc2c(C)c(-c3cc(COC(C)=O)c(=O)n(C)c3)nn2-c2ccccc2)[C@H](c2cnc(F)c(F)c2)O1 (racemic) [Compound I-80],IC50,[3],< 100 nM
COCCN1C[C@@H](NC(=O)Nc2c(C)c(-c3ccnc(N=S(C)(C)=O)c3)nn2-c2ccccc2)[C@H](c2ccc(F)c(F)c2)O1 (racemic) [Compound I-77],IC50,[3],< 100 nM
COCCN1C[C@@H](NC(=O)Nc2c(C)c(-c3cnc(N4CC(C)(O)C4)nc3)nn2-c2ccccc2)[C@H](c2ccnc(F)c2)O1 (racemic) [Compound I-479],IC50,[1],< 100 nM
COCCN1C[C@@H](NC(=O)Nc2c(C)c(-c3cnc4c(c3)ncn4CC(=O)N3CCN(C)CC3)nn2-c2ccccc2)[C@H](c2ccnc(F)c2)O1 (racemic) [Compound I-400],IC50,[1],< 100 nM
COCCN1C[C@@H](NC(=O)Nc2c(C)c(-c3cnc(OC)c(CN(C)C)c3)nn2-c2ccccc2)[C@H](c2ccc(F)c(F)c2)O1 [Compound I-639],IC50,[5],0.52 nM
COCCN1C[C@@H](NC(=O)Nc2c(C)c(-c3cnc(OC)c(C4(O)CC4)c3)nn2-c2ccccc2)[C@H](c2ccnc(F)c2)O1 (racemic) [Compound I-355],IC50,[1],< 100 nM
COCCN1C[C@@H](NC(=O)Nc2c(C)c(-c3cnc4c(c3)c(=O)n(C)n4C)nn2-c2ccccc2)[C@H](c2cnc(F)c(F)c2)O1 (racemic) [Compound I-79],IC50,[5],1.5 nM
